The values below come from ChEMBL document CHEMBL1140553, “Efficient synthesis and in vitro cytostatic activity of 4-substituted triazolyl-nucleosides” (Bioorg Med Chem Lett, 2007).

A word on the IC50: it is the concentration that inhibits the measured activity by half. High values mean weaker potency in that assay, low ones greater potency in that assay.

Some results are limits rather than exact numbers.

Assay type in all cases: functional, cell-based
One test concerns CCRF-CEM. The experiment in a line: Cytostatic activity against human CEM cells.
Another test concerns MOLT-4. The experiment in a line: Cytostatic activity against human Molt4/C8 cells.
For a further test, the system named is L1210. Put plainly: Cytostatic activity against mouse L1210 cells.

`OC[C@H]1O[C@@H](n2cc(-c3ccsc3)nn2)[C@H](O)[C@@H]1O`: the figures for the concentration for half-maximal inhibition (IC50) with CCRF-CEM, in the test on MOLT-4 and in the test on L1210 were 139 µM, 126 µM and 182 µM, respectively.

For `CC(O)c1cn([C@@H]2O[C@H](CO)[C@@H](O)[C@H]2O)nn1` (some centres undefined), the IC50 in the test with CCRF-CEM, in the test with MOLT-4 and in the test with L1210 was over 200 µM each time.

In the case of `COc1ccc(-c2cn([C@@H]3O[C@H](CO)[C@@H](O)[C@H]3O)nn2)cc1`, the figures for the 50% inhibitory concentration (IC50) in the test with CCRF-CEM, in the test on MOLT-4 and with L1210 were 73 µM, 36 µM and 152 µM, respectively.

As for `OC[C@H]1O[C@@H](n2cc(-c3ccccn3)nn2)[C@H](O)[C@@H]1O`, the half-maximal inhibitory concentration (IC50) with CCRF-CEM was 245 µM; in the test with MOLT-4, 170 µM; with L1210 it was 236 µM.

Turning to `OC[C@H]1O[C@@H](n2cc(-c3ccc(F)cc3)nn2)[C@H](O)[C@@H]1O`, the half-maximal inhibitory concentration (IC50) in the test with CCRF-CEM is 217 µM; in the test on MOLT-4, 171 µM; in the test on L1210 it was 209 µM.

On to `OCc1cn([C@@H]2O[C@H](CO)[C@@H](O)[C@H]2O)nn1`, for which the concentration for half-maximal inhibition (IC50) in the test with CCRF-CEM, in the test with MOLT-4 and in the test on L1210 was over 200 µM throughout.

Turning to `CCCCCCc1cn([C@@H]2O[C@H](CO)[C@@H](O)[C@H]2O)nn1`, the IC50 in the test with CCRF-CEM, in the test on MOLT-4 and in the test with L1210 was over 200 µM throughout.

Regarding `CCCCCCCCc1cn([C@@H]2O[C@H](CO)[C@@H](O)[C@H]2O)nn1`, the IC50 amounted to 44 µM in the test with CCRF-CEM, 50 µM in the test on MOLT-4 and 56 µM with L1210.
